Experimental data from the NIST ThermoML archive (doi:10.1016/j.jct.2015.07.042).

CCCCn1cc[n+](C)c1.[Cl-] [1-butyl-3-methylimidazolium chloride]
100 kPa
Conditions | mass density [kg/m3]
308.15 K, Metastable liquid, Vibrating tube method | 1079.4
313.15 K, Metastable liquid, Vibrating tube method | 1076.6
318.15 K, Metastable liquid, Vibrating tube method | 1073.7
323.15 K, Metastable liquid, Vibrating tube method | 1070.9
328.15 K, Metastable liquid, Vibrating tube method | 1068.1
333.15 K, Metastable liquid, Vibrating tube method | 1065.2
338.15 K, Metastable liquid, Vibrating tube method | 1062.4
343.15 K, Vibrating tube method, Liquid | 1059.6
348.15 K, Vibrating tube method, Liquid | 1056.9
353.15 K, Vibrating tube method, Liquid | 1054.3
358.15 K, Vibrating tube method, Liquid | 1051.7
363.15 K, Vibrating tube method, Liquid | 1049
368.15 K, Vibrating tube method, Liquid | 1046.4
373.15 K, Vibrating tube method, Liquid | 1043.9

CCCCn1cc[n+](C)c1.CS(=O)(=O)[O-] [1-butyl-3-methylimidazolium methanesulfonate]
100 kPa, Liquid, Vibrating tube method
Conditions | mass density [kg/m3]
333.15 K | 1150.6
338.15 K | 1147.4
343.15 K | 1144.3
348.15 K | 1141.2
353.15 K | 1137.9
358.15 K | 1134.9
363.15 K | 1131.9
368.15 K | 1128.8
373.15 K | 1125.8
